# Assay results from patent US20090136448A1, “Antiviral 2-Carboxy-Thiophene Compounds” (priority 2005, published 2009).
# How the values were obtained:
# [1] = test system: HCV replication, genotype 1a (Huh-7 HCV replicon cell); assay: Replicon ELISA cell based assay, genotype 1a; details: Hepatitis C virus, Huh-7 HCV replicon cells, 72 hours, mean, assayed at least twice
# Description: (§1) Replicon ELISA Cell Based Assay
# (§2) 100 μL of medium containing 10% FCS were added to each well of clear, flat-bottomed 96 well microplates, excepting wells in the top row. Test compound was diluted in assay medium to twice the final required starting concentration from a 40 mM stock solution in DMSO. 200 μL of the starting dilution were introduced into two wells each in the top row and doubling dilutions made down the plate by the sequential transfer of 100 μL aliquots with thorough mixing in the wells; the final 100 μL were discarded. The two bottom rows were not used for compound dilutions. Huh-7 HCV replicon cell monolayers nearing confluency were stripped from growth flasks with versene-trypsin solution and the cells were resuspended in assay medium at either 2×10^5 cells/mL (sub-line 5-15; genotype 1b; Lohmann, V., Korner, F., Koch, J-O., Herian, U., Thielmann, L. and Bartenschlager, R., Science, 1999, 285, 110-113) or at 3×10^5 cells/mL (genotype 1a; Gu, B., Gates, A. T., Isken, O., Behrens, S. E. and Sarisky, R. T., J. Virol., 2003, 77, 5352-5359). 100 μL of cell suspension were added to all wells and the plates incubated at 37° C. for 72 hours in a 5% CO2 atmosphere.
# (§3) Following incubation, the assay medium was aspirated from the plates. The cell sheets were washed by gentle immersion in phosphate buffered saline (PBS), which was then aspirated off, and fixed with acetone:methanol (1:1) for 5 minutes. Following a further wash with PBS, 100 μL of ELISA diluent (PBS+0.05% v/v Tween 20+2% w/v skimmed milk powder) were added to all wells and the plates incubated at 37° C. for 30 minutes on an orbital platform. The diluent was removed and each well then received 50 μL of a 1/200 dilution of anti-HCV specific, murine, monoclonal antibody (either Virostat #1872 or #1877), except for wells in one of the compound-free control rows which received diluent alone to act as negative controls. The plates were incubated at 37° C. for 2 hours and washed 3 times with PBS/0.05% Tween 20, then 50 μL of horseradish peroxidase conjugated, anti-mouse, rabbit polyclonal serum (Dako #P0260), diluted 1/1000, were added to all wells. The plates were incubated for a further hour, the antibody removed and the cell sheets washed 5 times with PBS/Tween and blotted dry. The assay was developed by the addition of 50 μL of ortho-phenylenediamine/peroxidase substrate in urea/citrate buffer (SigmaFast, Sigma #P-9187) to each well, and colour allowed to develop for up to 15 minutes. The reaction was stopped by the addition of 25 μL per well of 2 M sulphuric acid and the plates were read at 490 nm on a Fluostar Optima spectrophotometer.
# (§4) The substrate solution was removed and the plates were washed in tap water, blotted dry and the cells stained with 5% carbol fuchsin in water for 30 minutes. The stain was discarded and the cell sheets washed, dried and examined microscopically to assess cytotoxicity.
# (§5) The absorbance values from all compound-free wells that had received both primary and secondary antibodies were averaged to obtain a positive control value. The mean absorbance value from the compound-free wells that had not received the primary antibody was used to provide the negative (background) control value. The readings from the duplicate wells at each compound concentration were averaged and, after the subtraction of the mean background from all values, were expressed as a percentage of the positive control signal. The quantifiable and specific reduction of expressed protein detected by the ELISA in the presence of a drug can be used as a measure of replicon inhibition. GraFit software (Erithacus Software Ltd.) was used to plot the curve of percentage inhibition against compound concentration and derive the 50% inhibitory concentration (IC50) for the compound.
# [2] = test system: HCV replication, genotype 1b (Huh-7 HCV replicon cell, sub-line 5-15); assay: Replicon ELISA cell based assay, genotype 1b; details: Hepatitis C virus, Huh-7 HCV replicon cells, genotype 1b (sub-line 5-15), 72 hours, mean, assayed at least twice
# Description: as §1, §2, §3, §4, §5
SMILES,IC50 [1] [nM],IC50 [2] [nM]
"CC(C)N(c1cc(-c2ccc(-c3cc4ncccn4n3)nc2)sc1C(=O)O)C(=O)[C@H]1CC[C@H](C)CC1 [Example 34, 3-[[(trans-4-Methylcyclohexyl)carbonyl](1-methylethyl)amino]-5-(6-pyrazolo[1,5-a]pyrimidin-2-yl-3-pyridinyl)-2-thiophenecarboxylic acid]",10 to 50,50 to 100
"C[C@H]1CC[C@H](C(=O)N(CC2CC2)c2cc(-c3ccc(-c4cc5ncccn5n4)cc3)sc2C(=O)O)CC1 [Example 35, 3-{(Cyclopropylmethyl)[(trans-4-methylcyclohexyl)carbonyl]amino}-5-(4-pyrazolo[1,5-a]pyrimidin-2-ylphenyl)-2-thiophenecarboxylic acid]",10 to 50,5 to 10
"CC(C)N(c1cc(-c2ccc(-c3cc4ncccn4n3)s2)sc1C(=O)O)C(=O)[C@H]1CC[C@H](C)CC1 [Example 36, 4-[[(trans-4-Methylcyclohexyl)carbonyl](1-methylethyl)amino]-5′-pyrazolo[1,5-a]pyrimidin-2-yl-2,2′-bithionhene-5-carboxylic acid]",10 to 50,10 to 50
"CC(C)N(C(=O)[C@H]1CC[C@H](C)C[C@H]1O)c1cc(-c2ccc(-c3cc4ncccn4n3)cc2)sc1C(=O)O [Example 39, 3-[{[(1S,2R,4S)-2-Hydroxy-4-methylcyclohexyl]carbonyl}(1-methylethyl)amino]-5-(4-pyrazolo[1,5-a]pyrimidin-2-ylphenyl)-2-thiophenecarboxylic acid]",10 to 50,5 to 10
"CCN(c1cc(-c2ccc(-c3cc4ncccn4n3)cc2)sc1C(=O)O)C(=O)[C@H]1CC[C@H](C)CC1 [Example 40, Ammonium 3-{ethyl[(trans-4-methylcyclohexyl)carbonyl]amino}-5-(4-pyrazolo[1,5-a]pyrimidin-2-ylphenyl)-2-thiophenecarboxylate]",100 to 500,5 to 10
"CC(C)N(c1cc(-c2ccc(-c3ccc4[nH]ccc4c3)cc2)sc1C(=O)O)C(=O)[C@H]1CC[C@H](C)CC1 [Example 41, 5-[4-(1H-Indol-5-yl)phenyl]-3-[[(trans-4-methylcyclohexyl)carbonyl](1-methylethyl)amino]-2-thiophenecarboxylic acid]",100 to 500,50 to 100
"CC(C)N(c1cc(-c2ccc(-c3ccc4cc[nH]c4c3)cc2)sc1C(=O)O)C(=O)[C@H]1CC[C@H](C)CC1 [Example 42, 5-[4-(1H-Indol-6-yl)phenyl]-3-[[(trans-4-methylcyclohexyl)carbonyl](1-methylethyl)amino]-2-thiophenecarboxylic acid]",100 to 500,10 to 50
"CC(C)N(c1cc(-c2ccc(-c3cc4ncccc4o3)s2)sc1C(=O)O)C(=O)[C@H]1CC[C@H](C)CC1 [Example 43, 5′-Furo[3,2-b]pyridin-2-yl-4-[[(trans-4-methylcyclohexyl)carbonyl](1-methylethyl)amino]-2,2′-bithiophene-5-carboxylic acid]",500 to 1000,50 to 100
"CC(C)N(c1cc(-c2ccc(-c3nc4ncccc4o3)nc2)sc1C(=O)O)C(=O)[C@H]1CC[C@H](C)CC1 [Example 46, 3-[[(trans-4-Methylcyclohexyl)carbonyl](1-methylethyl)amino]-5-(6-[1,3]oxazolo[4,5-b]pyridin-2-yl-3-pyridinyl)-2-thiophenecarboxylic acid]",100 to 500,100 to 500
